What was measured:
NUDT5 in HL-60 cells = target: T1, NUDT5 in HL-60 cells (Homo sapiens, UniProt Q9UKK9); test: CETSA melt curve (apparent Tagg); assay type: cell-based
T1 construct: endogenous in cells; host or cells: HL-60
Experimental: For CETSA experiments with cells treated in culture, 1 × 10^6 HL-60 were treated with DMSO (0.1 % v/v final) or 20 µM compound for 3 h at 37 °C and 5% CO2 in a humidified incubator. T47D^WT cells were treated instead with 80 µM TH1659, 15 µM TH5423/5424 and 1.5 µM TH5427. The cells were harvested, washed twice with PBS and resuspended in TBS with protease inhibitors, as above. Heating was identical as before, except that immediately following heating, the cell suspensions were snap frozen in a dry ice/ethanol bath and freeze-thawed, as previously, to lyse cells. Centrifugation at 20 000 × g for 20 min at 4 °C removed cellular debris and protein aggregates, and lysates were prepared for western blotting. […]
Supplementary Figure 6: Thermal shift of NUDT5 with TH5427 by CETSA.
CETSA melt curve comparing DMSO-treated HL-60 cells to those treated with 2.5 or 20 µM TH5427. All points are shown for n=2 experiments and are normalized to SOD1 band intensity as a loading control. Representative, cropped western blots are shown. Apparent Tagg temperatures are shown below. […]

purified NUDT5 = target: T2, purified NUDT5 (Homo sapiens, UniProt Q9UKK9); test: biochemical conversion of 32P-PAR to ATP and AMP by PARG and NUDT5 (TLC); details: 0.6 µM, with NUDT5, PARG and PPi
T2 construct: His-tag (N); made in house; host or cells: E. coli BL21 (DE3) R3 pRARE2
Experimental: ^32P-NAD-labeled PAR was prepared as follows: 5 µg of purified GST-PARP1 was incubated with 2 µg of activated calf thymus DNA and 10 mM NAD +/^32P-NAD (Perkin-Elmer) at a ratio of 1:10 for 30 min at 25 °C and brought to a final volume of 100 µL with PARP reaction buffer (50 mM Tris, pH 7.5, 50 mM NaCl, 0.5 mM DTT, 0.1% Triton X-100 and protease inhibitors)[23]. After incubation, 0.4 µg of DNase was added to obtain DNA-free probes and the reaction was precipitated using TCA. The pellet was washed with acetone, dried and resuspended in 100 µl (10 mM Tris-HCl, pH 8.0, 1 mM EDTA, 0.1 % SDS, 100 µg/mL of Proteinase K) and incubated for 1 h at 37 °C, after which radio-labeled PAR was extracted using phenol/chloroform and ethanol precipitation. The pellet was resuspended in 50 µL (10 mM Tris-HCl, pH 8.0, 1 mM EDTA) and used for subsequent biochemical analyses.
Enzymatic conversion of radiolabeled ^32P-PAR by PARG and NUDT5 was performed using purified radio-labeled PAR (as described above) with the addition of recombinant bovine PARG in PAR glycohydroxylation buffer (PGB; 10 mM HEPES, pH 7.5, 150 mM KCl, 10 mM MgCl2)[23]. Recombinant PARG was added at the beginning of the reaction to a 10 µL final volume and incubated for 1 h at 25 °C. Recombinant NUDT5, pyrophosphate and/or TH5427 (0.6 µM) were added as indicated and incubated for an additional hour. […]

HL-60 or U-2 OS cells = test: cell viability by resazurin; assay type: cell-based; details: 72 h, Supplementary Figs. 7 and 10b (HL-60, U-2 OS, T47D)
Experimental: Cell viability was assessed by resazurin[9]. 5000 HL-60 cells (or 1000 U-2 OS/2000 T47D cells) were seeded per well on a 96-well plate. The following morning, compounds (or the equivalent amount of DMSO) were added to obtain the final concentrations indicated and the cells were incubated at 37 °C for 72 h with resazurin added at 0.02 mg/mL for the last 2–6 h. Resorufin fluorescence was detected at […] with a Hidex Sense fluorescent plate reader. Viability curves were fit using the sigmoidal dose-response (variable slope) function in GraphPad Prism 7.

T47D^M cells = test: progesterone-dependent gene expression by RT-qPCR; assay type: cell-based; details: 1.5 µM, 6 h R5020
Experimental: For hormone and inhibitor treatments, normal T47D^WT cells or cells containing a single copy of luciferase under the control of the mouse mammary tumor virus (MMTV) promoter (T47D^M) were used[23]. Prior to hormone induction, cells were grown in phenol red-free RPMI medium supplemented with 10% dextran-coated charcoal-treated FBS (DCC/FBS). After 16 h in serum-free conditions, cells were pre-incubated with DMSO (vehicle) or NUDT5 inhibitor for 2 h at the indicated dose before addition of R5020 (10 nM) or vehicle (ethanol, EtOH) for the allotted time.
Total RNA and cDNA were prepared using an RNeasy Plus kit (Qiagen) and Superscript II kit (Invitrogen), respectively, according to the manufacturers’ instructions. Quantification of mRNA abundance of specific gene products was performed by RT-qPCR (LightCycler FastStart DNA Master SYBR Green I), normalized to GAPDH and expressed as relative RNA abundance over time zero (no R5020 treatment). Primer sequences are available upon request.

SMILES: Cn1c(=O)c2c(nc(N3CCNCC3)n2Cc2nnc(-c3ccc(Cl)c(Cl)c3)o2)n(C)c1=O [TH5427]
- shift of NUDT5 apparent Tagg (NUDT5 in HL-60 cells): ≈ 8 °C
- synthesis of ATP and AMP from 32P-PAR (purified NUDT5): inhibited the biochemical synthesis of ATP and AMP from ^32P-PAR
- toxicity in cell lines tested (HL-60 or U-2 OS cells): non-toxic in cell lines tested up to 20 µM
- progestin-dependent gene expression, EGFR and MMTV-luc (T47D^M cells): significantly disrupted EGFR and MMTV-luc expression
- progestin-independent gene expression, CCNB1 and RBM24 (T47D^M cells): did not affect the expression of CCNB1 or RBM24

— article PMC5772648, “Targeted NUDT5 inhibitors block hormone signaling in breast cancer cells” (Nature Communications, 2018)
